Assay results from ChEMBL document CHEMBL1781873, “Synthesis and antibacterial property of pyrrolopyrano quinolinones and pyrroloquinolines” (2011).
Converted amounts (≈) assume the structure as drawn. The source made the active and inactive calls. No cut-off for these calls is given here.

How the values were obtained:
[1] = tested on: Pseudomonas aeruginosa; experiment: Antibacterial activity against Pseudomonas aeruginosa at 10 ug after 24 hrs by disc diffusion assay; format: functional; conditions: read-out: IZ
[2] = tested on: Escherichia coli; experiment: Antibacterial activity against Escherichia coli at 10 ug after 24 hrs by disc diffusion assay; format: functional; conditions: read-out: IZ
[3] = tested on: Klebsiella pneumoniae; experiment: Antibacterial activity against Klebsiella pneumoniae at 5 ug after 24 hrs by disc diffusion assay; format: functional; conditions: read-out: IZ
[4] = tested on: Klebsiella pneumoniae; experiment: Antibacterial activity against Klebsiella pneumoniae at 20 ug after 24 hrs by disc diffusion assay; format: functional; conditions: read-out: IZ
[5] = tested on: Pseudomonas aeruginosa; experiment: Antibacterial activity against Pseudomonas aeruginosa at 25 ug after 24 hrs by disc diffusion assay; format: functional; conditions: read-out: IZ
[6] = tested on: Escherichia coli; experiment: Antibacterial activity against Escherichia coli at 20 ug after 24 hrs by disc diffusion assay; format: functional; conditions: read-out: IZ
[7] = tested on: Escherichia coli; experiment: Antibacterial activity against Escherichia coli at 15 ug after 24 hrs by disc diffusion assay; format: functional; conditions: read-out: IZ
[8] = tested on: Salmonella typhi; experiment: Antibacterial activity against Salmonella typhi at 25 ug after 24 hrs by disc diffusion assay; format: functional, Salmonella enterica subsp. enterica serovar Typhi; conditions: Salmonella enterica, read-out: IZ
[9] = tested on: Salmonella typhi; experiment: Antibacterial activity against Salmonella typhi at 20 ug after 24 hrs by disc diffusion assay; format: functional, Salmonella enterica subsp. enterica serovar Typhi; conditions: Salmonella enterica, read-out: IZ
[10] = tested on: Staphylococcus aureus; experiment: Antibacterial activity against Staphylococcus aureus at 10 ug after 24 hrs by disc diffusion assay; format: functional; conditions: read-out: IZ
[11] = tested on: Staphylococcus aureus; experiment: Antibacterial activity against Staphylococcus aureus at 5 ug after 24 hrs by disc diffusion assay; format: functional; conditions: read-out: IZ
[12] = tested on: Escherichia coli; experiment: Inhibition of DNA gyrase mRNA expression in Escherichia coli measured up to 24 hrs by RT-PCR; format: functional, organism-based
[13] = tested on: Staphylococcus aureus; experiment: Antibacterial activity against Staphylococcus aureus at 25 ug after 24 hrs by disc diffusion assay; format: functional; conditions: read-out: IZ
[14] = tested on: Salmonella typhi; experiment: Antibacterial activity against Salmonella typhi at 15 ug after 24 hrs by disc diffusion assay; format: functional, Salmonella enterica subsp. enterica serovar Typhi; conditions: Salmonella enterica, read-out: IZ
[15] = tested on: Pseudomonas aeruginosa; experiment: Antibacterial activity against Pseudomonas aeruginosa after 18 to 20 hrs by broth micro dilution assay; format: functional
[16] = tested on: Escherichia coli; experiment: Antibacterial activity against Escherichia coli at 5 ug after 24 hrs by disc diffusion assay; format: functional; conditions: read-out: IZ
[17] = tested on: Bacillus subtilis; experiment: Antibacterial activity against Bacillus subtilis at 25 ug after 24 hrs by disc diffusion assay; format: functional; conditions: read-out: IZ
[18] = tested on: Staphylococcus aureus; experiment: Antibacterial activity against Staphylococcus aureus after 18 to 20 hrs by broth micro dilution assay; format: functional
[19] = tested on: Escherichia coli; experiment: Antibacterial activity against Escherichia coli after 18 to 20 hrs by broth micro dilution assay; format: functional
[20] = tested on: Klebsiella pneumoniae; experiment: Antibacterial activity against Klebsiella pneumoniae at 15 ug after 24 hrs by disc diffusion assay; format: functional; conditions: read-out: IZ
[21] = tested on: Pseudomonas aeruginosa; experiment: Antibacterial activity against Pseudomonas aeruginosa at 20 ug after 24 hrs by disc diffusion assay; format: functional; conditions: read-out: IZ
[22] = tested on: Klebsiella pneumoniae; experiment: Antibacterial activity against Klebsiella pneumoniae at 25 ug after 24 hrs by disc diffusion assay; format: functional; conditions: read-out: IZ
[23] = tested on: Salmonella typhi; experiment: Antibacterial activity against Salmonella typhi after 18 to 20 hrs by broth micro dilution assay; format: functional, Salmonella enterica subsp. enterica serovar Typhi; conditions: Salmonella enterica
[24] = tested on: Escherichia coli; experiment: Inhibition of Escherichia coli DNA gyrase -mediated DNA relaxation using pBR322 DNA as substrate at […] after 1 hrs by agarose gel electrophoresis
[25] = tested on: Escherichia coli; experiment: Antibacterial activity against Escherichia coli at 25 ug after 24 hrs by disc diffusion assay; format: functional; conditions: read-out: IZ
[26] = tested on: Pseudomonas aeruginosa; experiment: Antibacterial activity against Pseudomonas aeruginosa at 15 ug after 24 hrs by disc diffusion assay; format: functional; conditions: read-out: IZ
[27] = tested on: Bacillus subtilis; experiment: Antibacterial activity against Bacillus subtilis at 15 ug after 24 hrs by disc diffusion assay; format: functional; conditions: read-out: IZ
[28] = tested on: Bacillus subtilis; experiment: Antibacterial activity against Bacillus subtilis after 18 to 20 hrs by broth micro dilution assay; format: functional
[29] = tested on: Bacillus subtilis; experiment: Antibacterial activity against Bacillus subtilis at 20 ug after 24 hrs by disc diffusion assay; format: functional; conditions: read-out: IZ
[30] = tested on: Escherichia coli; experiment: Inhibition of Escherichia coli DNA gyrase assessed as inhibition of DNA supercoiling activity using pBR322 DNA as substrate at […] after 3 hrs by agarose gel electrophoresis
[31] = tested on: Staphylococcus aureus; experiment: Antibacterial activity against Staphylococcus aureus at 20 ug after 24 hrs by disc diffusion assay; format: functional; conditions: read-out: IZ
[32] = tested on: Pseudomonas aeruginosa; experiment: Antibacterial activity against Pseudomonas aeruginosa at 5 ug after 24 hrs by disc diffusion assay; format: functional; conditions: read-out: IZ
[33] = tested on: Salmonella typhi; experiment: Antibacterial activity against Salmonella typhi at 5 ug after 24 hrs by disc diffusion assay; format: functional, Salmonella enterica subsp. enterica serovar Typhi; conditions: Salmonella enterica, read-out: IZ
[34] = tested on: Bacillus subtilis; experiment: Antibacterial activity against Bacillus subtilis at 10 ug after 24 hrs by disc diffusion assay; format: functional; conditions: read-out: IZ
[35] = tested on: Klebsiella pneumoniae; experiment: Antibacterial activity against Klebsiella pneumoniae after 18 to 20 hrs by broth micro dilution assay; format: functional
[36] = tested on: Klebsiella pneumoniae; experiment: Antibacterial activity against Klebsiella pneumoniae at 10 ug after 24 hrs by disc diffusion assay; format: functional; conditions: read-out: IZ
[37] = tested on: Salmonella typhi; experiment: Antibacterial activity against Salmonella typhi at 10 ug after 24 hrs by disc diffusion assay; format: functional, Salmonella enterica subsp. enterica serovar Typhi; conditions: Salmonella enterica, read-out: IZ
[38] = tested on: Staphylococcus aureus; experiment: Antibacterial activity against Staphylococcus aureus at 15 ug after 24 hrs by disc diffusion assay; format: functional; conditions: read-out: IZ
[39] = tested on: Bacillus subtilis; experiment: Antibacterial activity against Bacillus subtilis at 5 ug after 24 hrs by disc diffusion assay; conditions: read-out: IZ

## CCC1[C@H]2c3c(n(C)c4ccccc4c3=O)OC(C)(C)[C@@H]2CN1OS(=O)(=O)c1ccc(C)cc1 (mixture of isomers)
[1]
  zone of inhibition at 10 µg/disc: 26 mm
[2]
  zone of inhibition at 10 µg/disc: 14 mm
[3]
  zone of inhibition at 5 µg/disc: 10 mm
[4]
  zone of inhibition at 20 µg/disc: 24 mm
[5]
  zone of inhibition at 25 µg/disc: 36 mm
[6]
  zone of inhibition at 20 µg/disc: 22 mm
[7]
  zone of inhibition at 15 µg/disc: 16 mm
[8]
  zone of inhibition at 25 µg/disc: 24 mm
[9]
  zone of inhibition at 20 µg/disc: 22 mm
[10]
  zone of inhibition at 10 µg/disc: 24 mm
[11]
  zone of inhibition at 5 µg/disc: 20 mm
[12]
  inhibition of gyrase mRNA expression (active/not active): inactive
[13]
  zone of inhibition at 25 µg/disc: 36 mm
[14]
  zone of inhibition at 15 µg/disc: 18 mm
[15]
  MIC50: 0.5 µg/mL
  MIC90: 0.5 µg/mL
[16]
  zone of inhibition at 5 µg/disc: 12 mm
[17]
  zone of inhibition at 25 µg/disc: 11 mm
[18]
  MIC50: 0.5 µg/mL
  MIC90: 0.5 µg/mL
[19]
  MIC50: 0.5 µg/mL
  MIC90: 0.5 µg/mL
[20]
  zone of inhibition at 15 µg/disc: 16 mm
[21]
  zone of inhibition at 20 µg/disc: 34 mm
[22]
  zone of inhibition at 25 µg/disc: 26 mm
[23]
  MIC50: 0.5 µg/mL
  MIC90: 0.5 µg/mL
[24]
  inhibition: Active
[25]
  zone of inhibition at 25 µg/disc: 23 mm
[26]
  zone of inhibition at 15 µg/disc: 28 mm
[27]
  zone of inhibition at 15 µg/disc: 9 mm
[28]
  MIC50: 0.5 µg/mL
  MIC90: 0.5 µg/mL
[29]
  zone of inhibition at 20 µg/disc: 10 mm
[30]
  DNA gyrase inhibition (active/inactive): Active
[31]
  zone of inhibition at 20 µg/disc: 30 mm
[32]
  zone of inhibition at 5 µg/disc: 24 mm
[33]
  zone of inhibition at 5 µg/disc: 10 mm
[34]
  zone of inhibition at 10 µg/disc: 8 mm
[35]
  MIC50: 0.5 µg/mL
  MIC90: 0.5 µg/mL
[36]
  zone of inhibition at 10 µg/disc: 14 mm
[37]
  zone of inhibition at 10 µg/disc: 16 mm
[38]
  zone of inhibition at 15 µg/disc: 26 mm

## O=C(O)c1cn(C2CC2)c2cc(N3CCNCC3)c(F)cc2c1=O [CIPROFLOXACIN]
[1]
  zone of inhibition at 10 µg/disc: 14 mm
[2]
  zone of inhibition at 10 µg/disc: 16 mm
[3]
  zone of inhibition at 5 µg/disc: 24 mm
[4]
  zone of inhibition at 20 µg/disc: 34 mm
[5]
  zone of inhibition at 25 µg/disc: 23 mm
[7]
  zone of inhibition at 15 µg/disc: 18 mm
[8]
  zone of inhibition at 25 µg/disc: 24 mm
[9]
  zone of inhibition at 20 µg/disc: 22 mm
[10]
  zone of inhibition at 10 µg/disc: 24 mm
[11]
  zone of inhibition at 5 µg/disc: 22 mm
[13]
  zone of inhibition at 25 µg/disc: 36 mm
[14]
  zone of inhibition at 15 µg/disc: 18 mm
[15]
  MIC50: 0.5 µg/mL (≈ 1.51 µM)
  MIC90: 1 µg/mL (≈ 3.02 µM)
[17]
  zone of inhibition at 25 µg/disc: 12 mm
[18]
  MIC50: 0.5 µg/mL (≈ 1.51 µM)
  MIC90: 1 µg/mL (≈ 3.02 µM)
[19]
  MIC90: 1 µg/mL (≈ 3.02 µM)
[20]
  zone of inhibition at 15 µg/disc: 30 mm
[21]
  zone of inhibition at 20 µg/disc: 20 mm
[22]
  zone of inhibition at 25 µg/disc: 36 mm
[23]
  MIC50: 0.5 µg/mL (≈ 1.51 µM)
  MIC90: 1 µg/mL (≈ 3.02 µM)
[24]
  inhibition: Active
[26]
  zone of inhibition at 15 µg/disc: 16 mm
[27]
  zone of inhibition at 15 µg/disc: 9 mm
[28]
  MIC50: 0.5 µg/mL (≈ 1.51 µM)
  MIC90: 1 µg/mL (≈ 3.02 µM)
[29]
  zone of inhibition at 20 µg/disc: 10 mm
[30]
  DNA gyrase inhibition (active/inactive): Active
[31]
  zone of inhibition at 20 µg/disc: 30 mm
[32]
  zone of inhibition at 5 µg/disc: 12 mm
[33]
  zone of inhibition at 5 µg/disc: 14 mm
[39]
  zone of inhibition at 5 µg/disc: 6 mm
[34]
  zone of inhibition at 10 µg/disc: 7 mm
[35]
  MIC50: 0.5 µg/mL (≈ 1.51 µM)
  MIC90: 1 µg/mL (≈ 3.02 µM)
[36]
  zone of inhibition at 10 µg/disc: 26 mm
[37]
  zone of inhibition at 10 µg/disc: 16 mm
[38]
  zone of inhibition at 15 µg/disc: 26 mm
